Measured values as given in US20120283303A1, “USE OF N-AMINOIMIDAZOLE CYTOPROTECTIVE COMPOUNDS FOR TREATING CELL DEATH AND/OR GSK-3 MEDIATED DISEASES” (K.U.LEUVEN RESEARCH AND DEVELOPMENT, priority 2006, published 2012).
Converted amounts (≈) assume the structure as drawn.

What follows are compounds tested against T1, GSK-3β (Homo sapiens, UniProt P49841) (assay: Radiometric kinase activity assay). Details: same experimental set-up as Table 1.
T1 construct: purchased Upstate Biotechnology
Type: biochemical
Protocol: (§1) GSK-3 were assayed for their ability to phosphorylate the appropriate peptide/protein substrate in the presence of 5 μg/ml NR-818 and 10 μM ATP. Using the direct radiometric approach, kinase activities were determined and expressed as % activity compared to the untreated control (Upstate Biotechnology, Lake Placid, N.Y.). Activities are given as the mean of duplicate determinations relative to control incubations in which the inhibitor was substituted with DMSO. In the following table 1 providing results for NR818, the following abbreviations are used: • CDK, cyclin-dependent kinase; • CK, casein kinase; • eEF-2K, eukaryotic elongation factor-2 kinase; • JNK, c-Jun N-terminal kinase; • MAPK, mitogen-activated protein kinase; • PKC, protein kinase C; and • PI 3-kinase, phosphatidylinositol 3-kinase.
(§2) By using this experimental set-up, the inhibiting activity of NR953 on GSK-3 is also tested.

T1 sequence (P49841 whole entry): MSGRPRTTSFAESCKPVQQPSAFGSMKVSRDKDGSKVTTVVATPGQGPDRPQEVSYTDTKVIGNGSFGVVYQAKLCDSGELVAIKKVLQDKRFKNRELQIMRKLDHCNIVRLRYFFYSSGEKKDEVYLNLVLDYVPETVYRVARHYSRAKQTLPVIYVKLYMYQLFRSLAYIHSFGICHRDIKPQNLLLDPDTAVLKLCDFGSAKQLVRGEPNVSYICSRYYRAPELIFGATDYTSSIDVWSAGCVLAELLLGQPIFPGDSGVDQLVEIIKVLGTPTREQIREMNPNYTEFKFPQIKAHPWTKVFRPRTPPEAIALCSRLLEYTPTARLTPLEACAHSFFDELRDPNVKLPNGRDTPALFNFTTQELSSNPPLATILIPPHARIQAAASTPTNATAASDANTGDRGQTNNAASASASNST

| SMILES | IC50 on GSK-3β |
| --- | --- |
| Cc1nc(SC(O)C(O)C(O)C(O)C(O)CO)n(Nc2cccc3ccccc23)c1-c1ccccc1 (stereo not shown) [HER/NR953] | low micro-molar concentrations |

The compounds below were run against T2, GSK-3α (Homo sapiens, UniProt P49840) (assay: Radiometric kinase activity assay). Details: same experimental set-up as Table 1.
T2 construct: purchased Upstate Biotechnology
T2 sequence (P49840 whole entry): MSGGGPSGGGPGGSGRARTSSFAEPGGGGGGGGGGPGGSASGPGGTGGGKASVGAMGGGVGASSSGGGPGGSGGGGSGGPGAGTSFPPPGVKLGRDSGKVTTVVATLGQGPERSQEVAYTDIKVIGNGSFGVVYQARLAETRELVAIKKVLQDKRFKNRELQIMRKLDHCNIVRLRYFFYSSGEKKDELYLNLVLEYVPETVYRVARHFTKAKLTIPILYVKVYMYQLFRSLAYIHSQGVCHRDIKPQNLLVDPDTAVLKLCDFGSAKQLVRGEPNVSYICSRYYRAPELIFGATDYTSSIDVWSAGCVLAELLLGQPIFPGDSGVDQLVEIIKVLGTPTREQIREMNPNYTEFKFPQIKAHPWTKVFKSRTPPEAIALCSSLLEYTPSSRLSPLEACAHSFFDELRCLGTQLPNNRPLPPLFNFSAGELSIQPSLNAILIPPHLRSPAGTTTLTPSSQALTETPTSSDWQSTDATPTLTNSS
Type: biochemical
Protocol: as §1, §2

| SMILES | IC50 on GSK-3α |
| --- | --- |
| Cc1nc(SC(O)C(O)C(O)C(O)C(O)CO)n(Nc2cccc3ccccc23)c1-c1ccccc1 (stereo not shown) [HER/NR953] | low micro-molar concentrations |

Each compound was assayed on M17-TAU P301L cells (assay: TAU cytotoxicity (LDH leakage) in retinoic acid incubated M17-TAU P301L cells). Details: Homo sapiens, 168 h, reduction of LDH activity of retinoic acid incubated M17-TAU P301L cells, 7 days; read-out: IC50.
Type: cell-based, human
Description: An TAU expression plasmid was constructed by sub-cloning the cDNA of human TAU-P301L (encoding for TAU with proline 301 substituted by a leucine residue) into mammalian expression vector pcDNA3.1 resulting in plasmid pcDNA3.1-TAU P301L. Plasmids pcDNA3.1 and pcDNA3.1-TAU P301L were transfected to human neuroblastoma cells ([…]; ATCC No. CRL-2267) and independent clonal lines with the plasmids stably integrated into the genome were selected. […] Expression of the TAU P301L genes in the cell lines was confirmed by Western analysis.
In degenerated or dead cells, lactate dehydrogenase (LDH) is leaked out of the cells into the extracellular environment due to a loss of plasma-membrane integrity. This principle was used to determine cytotoxicity by quantifying the level of leaked LDH into the growth medium.
The detailed method for determining TAU cytotoxicity was as follows: From appropriate precultures of M17-3.1 and M17-TAU(P301L) cells were seeded at 2500 cells/cm2 in Optimem Reduced Serum without phenol red (Gibco, Cat. 31985-047) supplemented with 1% fetal calf serum, 1 mM sodium pyruvate, 1× non-essential amino acids, 500 μg/ml G418 0.5× antibiotic/antimycotic. After 3 hours of incubation at 37° C./5% CO2 1 volume of Optimem Reduced Serum (same as described above; except without fetal calf serum) supplemented with 2.5 μM retinoic acid (RA) was added. The cells were further incubated for 7 days. Subsequently, LDH activity was determined using Promega Cytotox 96 Non-Radioactive cytotoxicity assay, (Cat. G1780) according the supplier's instructions.
The M17-TAU P301L cell line made it possible to assess the ability of the compounds of this invention to counteract TAU cytotoxicity. […] Potency of the relevant compounds was determined by testing them at different concentrations ranging from non-effective (thus at a relatively low concentration) to an effective concentration for their ability to reduce LDH activity of retinoic acid incubated M17-TAU P301L cells.

| SMILES | IC50 |
| --- | --- |
| Cc1[nH]c(=S)n(Nc2ccccc2Cl)c1-c1ccccc1 [HER/NR723] | 0.024 µg/mL (≈ 0.076 µM) |
| Cc1[nH]c(=S)n(Nc2cccc(Cl)c2)c1-c1ccccc1 [HER/NR724] | 0.34 µg/mL (≈ 1.08 µM) |
| Cc1[nH]c(=S)n(Nc2ccc(Cl)cc2)c1-c1ccccc1 [HER/NR725] | 0.176 µg/mL (≈ 0.557 µM) |
| Cc1ncn(Nc2cccc(Cl)c2)c1-c1ccccc1 [HER/NR746] | 0.081 µg/mL (≈ 0.285 µM) |
| CSc1nc(C)c(-c2ccccc2)n1Nc1cccc(Cl)c1 [HER/NR747] | 0.256 µg/mL (≈ 0.776 µM) |
| Cc1cccc(Nn2c(SCc3ccccc3)nc(C)c2-c2ccccc2)c1 [HER/NR748] | 0.325 µg/mL (≈ 0.843 µM) |
| Cc1[nH]c(=S)n(Nc2cccc(Cl)c2)c1-c1cccc(Br)c1 [HER/NR759] | 0.174 µg/mL (≈ 0.441 µM) |
| Cc1[nH]c(=S)n(Nc2cccc(Cl)c2)c1-c1ccc(Br)cc1 [HER/NR760] | 0.12 µg/mL (≈ 0.304 µM) |
| Cc1[nH]c(=S)n(Nc2cccc(Cl)c2)c1-c1cccc(Cl)c1 [HER/NR761] | 0.11 µg/mL (≈ 0.314 µM) |
| Cc1[nH]c(=S)n(Nc2cccc(Cl)c2)c1-c1ccc(Cl)cc1 [HER/NR762] | 0.061 µg/mL (≈ 0.174 µM) |
| COc1ccc(-c2c(C)[nH]c(=S)n2Nc2cccc(Cl)c2)cc1 [HER/NR763] | 0.456 µg/mL (≈ 1.32 µM) |
| Cc1[nH]c(=S)n(Nc2cccc(Cl)c2)c1-c1ccc(Cl)cc1Cl [HER/NR766] | 0.192 µg/mL (≈ 0.499 µM) |
| Cc1ccc(Nn2c(-c3ccccc3)c(C)[nH]c2=S)cc1C [HER/NR767] | 0.146 µg/mL (≈ 0.472 µM) |
| Cc1[nH]c(=S)n(Nc2cccc(Br)c2)c1-c1ccccc1 [HER/NR768] | 0.44 µg/mL (≈ 1.22 µM) |
| Cc1[nH]c(=S)n(Nc2cc(Cl)ccc2Cl)c1-c1ccccc1 [HER/NR769] | 0.434 µg/mL (≈ 1.24 µM) |
| Cc1[nH]c(=S)n(Nc2cccc(F)c2)c1-c1ccccc1 [HER/NR770] | 1.46 µg/mL (≈ 4.88 µM) |
| Cc1ccc(Nn2c(-c3ccccc3)c(C)[nH]c2=S)cc1Cl [HER/NR771] | 0.293 µg/mL (≈ 0.888 µM) |
| Cc1[nH]c(=S)n(Nc2ccccc2)c1-c1ccccc1 [HER/NR772] | 0.568 µg/mL (≈ 2.02 µM) |
| Cc1[nH]c(=S)n(Nc2ccc(F)cc2)c1-c1ccccc1 [HER/NR773] | 0.426 µg/mL (≈ 1.42 µM) |
| Cc1[nH]c(=S)n(Nc2cccc([N+](=O)[O-])c2)c1-c1ccccc1 [HER/NR774] | 2.13 µg/mL (≈ 6.53 µM) |
| Cc1cccc(Nn2c(-c3ccccc3)c(C)[nH]c2=S)c1 [HER/NR775] | 0.321 µg/mL (≈ 1.09 µM) |
| Cc1ncn(Nc2ccccc2)c1-c1ccccc1 [HER/NR776] | 0.455 µg/mL (≈ 1.82 µM) |
| Cc1ncn(Nc2cccc(Cl)c2)c1-c1cccc(Cl)c1 [HER/NR777] | 0.107 µg/mL (≈ 0.336 µM) |
| Cc1ncn(Nc2ccc(F)cc2)c1-c1ccccc1 [HER/NR786] | 0.191 µg/mL (≈ 0.715 µM) |
| Cc1cccc(Nn2c(-c3ccccc3)c(C(C)C)[nH]c2=S)c1 [HER/NR787] | 0.4 µg/mL (≈ 1.24 µM) |
| CCc1[nH]c(=S)n(Nc2cccc(C)c2)c1-c1ccccc1 [HER/NR788] | 0.341 µg/mL (≈ 1.1 µM) |
| CCc1[nH]c(=S)n(Nc2cccc(Cl)c2)c1-c1ccccc1 [HER/NR789] | 0.184 µg/mL (≈ 0.558 µM) |

| SMILES | IC50 |
| --- | --- |
| Cc1cccc(Nn2cnc(C)c2-c2ccccc2)c1 [HER/NR790] | 0.059 µg/mL (≈ 0.224 µM) |
| CCc1ncn(Nc2cccc(C)c2)c1-c1ccccc1 [HER/NR791] | 0.046 µg/mL (≈ 0.166 µM) |
| Cc1cc(C)cc(Nn2c(-c3ccccc3)c(C)[nH]c2=S)c1 [HER/NR798] | 0.496 µg/mL (≈ 1.6 µM) |
| COc1cccc(Nn2c(-c3ccccc3)c(C)[nH]c2=S)c1 [HER/NR801] | 1.35 µg/mL (≈ 4.34 µM) |
| COc1cccc(Nn2cnc(C)c2-c2ccccc2)c1 [HER/NR802] | 1.34 µg/mL (≈ 4.79 µM) |
| Cc1[nH]c(=S)n(Nc2cccc(Cl)c2)c1-c1cccc(C#N)c1 [HER/NR803] | 0.086 µg/mL (≈ 0.252 µM) |
| Cc1cccc(Nn2c(-c3cccc(C#N)c3)c(C)[nH]c2=S)c1 [HER/NR804] | 0.154 µg/mL (≈ 0.481 µM) |
| Cc1ncn(Nc2cccc(Cl)c2)c1-c1cccc(C#N)c1 [HER/NR805] | 0.09 µg/mL (≈ 0.291 µM) |
| Cc1cccc(Nn2cnc(C)c2-c2cccc(C#N)c2)c1 [HER/NR806] | 0.141 µg/mL (≈ 0.489 µM) |
| Cc1cc(C)cc(Nn2cnc(C)c2-c2ccccc2)c1 [HER/NR808] | 0.023 µg/mL (≈ 0.0829 µM) |
| Cc1cccc(Nn2cnc(C)c2-c2cccc(C(N)=O)c2)c1 [HER/NR809] | 0.33 µg/mL (≈ 1.08 µM) |
| Cc1[nH]c(=S)n(Nc2cccc(Cl)c2)c1-c1cccc(C(=O)O)c1 [HER/NR810] | 1 µg/mL (≈ 2.79 µM) |
| Cc1cccc(Nn2c(-c3cccc(C(=O)O)c3)c(C)[nH]c2=S)c1 [HER/NR811] | 1.9 µg/mL (≈ 5.6 µM) |
| COC(=O)c1cccc(-c2c(C)[nH]c(=S)n2Nc2cccc(Cl)c2)c1 [HER/NR812] | 0.328 µg/mL (≈ 0.877 µM) |
| Cc1[nH]c(=S)n(Nc2cccc(Cl)c2)c1-c1cccc(C(N)=O)c1 [HER/NR813] | 0.18 µg/mL (≈ 0.502 µM) |
| COC(=O)c1cccc(-c2c(C)ncn2Nc2cccc(Cl)c2)c1 [HER/NR814] | 0.172 µg/mL (≈ 0.503 µM) |
| Cc1ncn(Nc2cccc(Cl)c2)c1-c1cccc(C(=O)O)c1 [HER/NR815] | 0.805 µg/mL (≈ 2.46 µM) |
| CCc1ccc(Nn2c(-c3ccccc3)c(C)[nH]c2=S)cc1 [HER/NR861] | 0.106 µg/mL (≈ 0.343 µM) |
| CSc1ccc(Nn2c(-c3ccccc3)c(C)[nH]c2=S)cc1 [HER/NR862] | 0.027 µg/mL (≈ 0.0824 µM) |
| Cc1c(-c2ccccc2)n(N(C)c2ccccc2)c(=S)n1C [HER/NR863] | 3.85 µg/mL (≈ 12.4 µM) |
| Cc1ccc(Nn2cnc(C)c2-c2ccccc2)cc1Cl [HER/NR864] | 0.057 µg/mL (≈ 0.191 µM) |
| Cc1ncn(Nc2cccc(Cl)c2)c1-c1ccc(Br)cc1 [HER/NR865] | 0.071 µg/mL (≈ 0.196 µM) |
| Cc1[nH]c(=S)n(N(C)c2ccccc2)c1-c1ccccc1 [HER/NR866] | 0.195 µg/mL (≈ 0.66 µM) |
| Cc1[nH]c(=S)n(Nc2cccc3ccccc23)c1-c1cccc(Br)c1 [HER/NR914] | 0.045 µg/mL (≈ 0.11 µM) |
| Cc1[nH]c(=S)n(Nc2cccc3ccccc23)c1-c1cccc(Cl)c1 [HER/NR915] | 0.037 µg/mL (≈ 0.101 µM) |
| Cc1nc(SC(O)C(O)C(O)C(O)C(O)CO)n(Nc2cccc3ccccc23)c1-c1ccccc1 (stereo not shown) [HER/NR953] | 0.052 µg/mL (≈ 0.102 µM) |

Same assay, conditions: reduction of LDH activity of retinoic acid incubated M17-TAU P301L cells, 7 days

| SMILES | IC50 |
| --- | --- |
| Cc1ncn(Nc2cccc(Cl)c2)c1-c1cccc(Br)c1 [HER/LI412 = NR779GLUCOSE] | 0.216 µg/mL (≈ 0.596 µM) |
| Cc1ncn(Nc2cccc(Cl)c2)c1-c1cccc(Br)c1 [HER/NR779] | 0.022 µg/mL (≈ 0.0607 µM) |

These compounds were tested on Peripheral blood mononuclear cells (PBMCs) (assay: PBMC survival (viable cell count, trypan blue exclusion)). Details: NAIM alone, compared to control conditions.
Type: cell-based, human
Protocol: Peripheral blood mononuclear cells (PBMCs) from healthy donors were isolated by density centrifugation (Lymphoprep; Nycomed Pharma, AS Diagnostics, Oslo, Norway). For the “non-stimulated” conditions (NS) the cells were cultivated at a density of 1,750,000 cells per ml in RPMI-1640 supplemented with 2 mM L-glutamine, 15% FCS and 0.1% NaHCO3 for 3 days. […] At day 0 of the experiment, the NS and activated cells (PHA-stimulated blasts) were washed with PBS and were pelleted by centrifugation. […] The number of viable cells was counted based on the trypan blue exclusion method. The evolution of the number of cells was followed over a period of approximately 2 weeks.

| SMILES | PBMC cell viability, NAIM as such |
| --- | --- |
| Cc1nc(SC(O)C(O)C(O)C(O)C(O)CO)n(Nc2cccc3ccccc23)c1-c1ccccc1 (stereo not shown) [HER/NR953] | did not affect the cell viability |
